The values that follow come from patent publication US7090985B2, “Methods for the identification of agents for the treatment of seizures, neurological diseases, endocrinopathies and hormonal diseases” (UCB, S.A., priority 2002, dated 2006).

For series [1], the system named is peripheral tissues including heart, kidneys, spleen, pancreas, adrenals, lungs and liver. The conditions noted are these: radiolabel studies; cited from earlier work.
Series [2] addresses T1, levetiracetam binding site (LBS) (Rattus norvegicus, UniProt Q02563). More on the design: from tissue; host or cells: rat brain (crude membranes; 25 µm brain slices for autoradiography). Conditions: cited from earlier work.
The conditions of series [3]: adjunctive therapy, adults; cited from earlier work.
For series [4], the system named is audiogenic-susceptible mouse. The conditions noted are these: cited from earlier work.
The target in series [5] is T2, human SV2A (Homo sapiens, UniProt Q7L0J3).
T2 construct: expressed in transfected cells; host or cells: COS-7 cells, transient transfection (Lipofectamine 2000), vector pDEST 12.2
T2 sequence (Q7L0J3 whole entry): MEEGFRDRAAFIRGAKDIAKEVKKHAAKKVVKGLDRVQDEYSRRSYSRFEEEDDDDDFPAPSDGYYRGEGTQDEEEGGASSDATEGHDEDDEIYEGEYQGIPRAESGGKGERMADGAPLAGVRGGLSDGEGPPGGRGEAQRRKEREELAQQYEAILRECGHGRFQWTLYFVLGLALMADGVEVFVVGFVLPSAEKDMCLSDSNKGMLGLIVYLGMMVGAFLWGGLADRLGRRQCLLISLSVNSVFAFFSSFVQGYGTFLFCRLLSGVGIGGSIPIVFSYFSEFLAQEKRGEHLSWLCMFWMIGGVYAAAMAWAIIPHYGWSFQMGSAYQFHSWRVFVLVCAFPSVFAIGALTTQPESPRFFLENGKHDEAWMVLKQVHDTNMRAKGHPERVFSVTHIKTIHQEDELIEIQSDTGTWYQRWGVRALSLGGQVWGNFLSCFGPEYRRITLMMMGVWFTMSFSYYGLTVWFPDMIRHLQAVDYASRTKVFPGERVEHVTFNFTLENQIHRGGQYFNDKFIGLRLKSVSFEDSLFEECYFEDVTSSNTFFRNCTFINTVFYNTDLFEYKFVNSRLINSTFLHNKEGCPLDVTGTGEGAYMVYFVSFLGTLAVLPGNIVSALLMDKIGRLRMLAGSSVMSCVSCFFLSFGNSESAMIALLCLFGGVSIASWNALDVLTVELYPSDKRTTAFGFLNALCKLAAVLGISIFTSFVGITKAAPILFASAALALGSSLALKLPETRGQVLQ
Put plainly: 3H-30889 intact cell binding to COS-7 cells transfected with SV2A. The conditions noted are these: displacement of 3H-30889, intact transfected COS-7 cells. From the text: The human SV2A coding region was transferred from the pDONR GATEWAY cloning vector to a pDEST 12.2 Gateway expression vector. This vector has a CMV promoter driving the introduced gene, and an SV40 ori, which allows very high levels of replication in the COS-7 cell line, which contains the large T antigen. In addition, the human SV2A coding region was transferred into a pDEST 40 Gateway expression vector. This vector is very similar to the 12.2 vector above, with a CMV promoter driving expression of hSV2A, and an SV40 ori, and a Neomycin resistance gene.
Lipofectamine 2000 (Invitrogen) transfection reagent was used to transfect DNA into 90% confluent COS-7 cells. Also, the same reagent was used to transfect the hSV2A containing vector into the PC12a cell line, and selecting for antibiotic resistance. Anti-SV2 polyclonal antibody (CalBiochem) was used to test for expression in either transfected COS-7 cells, or transfected PC 12a cells, of the SV2A product. Lysates of the COS-7 cells were collected at 18 hrs after transfection on an SDS-PAGE gel, transferred to a membrane, and probed with a polyclonal antibody against SV2A, in comparison to crude rat brain membranes (FIG. 12A). Also shown are lysates from a non-transfected COS-7 cells, non-transfected PC12a cells (low in LBS), PC12bs cells (high in LBS), or PC 12a cells transfected with hSV2A (FIG. 12B). No labeling of protein bands is observed in the untransfected COS-7 control, while the transfected COS-7 cells show multiple bands, with most density in the range of 80–120 kD, perhaps due to multiple glycosylation states of the expressed protein. […]
In a binding experiment, specific binding was measured of ^3H-30889 to COS-7 cells that have either been transfected with SV2A-12.2, or as controls, a β-gal expressing vector, or cells that have not been transfected (FIG. 13). […] The cells were lysed on the plate, transferred to scintillation vials with scintillation fluid and counted for ^3H decay emission. […]
Background: Displacement assays read how much labelled ligand stays bound in the presence of the test substance.

Series [6] has as its target T1, levetiracetam binding site (LBS). Put plainly: [3H]ucb 30889 binding on crude rat brain membranes (kinetics, saturation, competition).
Series [7] concerns PC12. In words: [3H]ucb 30889 binding in cell types. More on the design: species or system rat. On the procedure:
(§1) To identify and characterize the LBS in situ, ^[3H]ucb 30889 was used to map the LBS within the brain and to study both its cellular and subcellular distribution. […] Binding assays with rat brain membranes and various neuronal cell lines were performed under similar conditions. […] For photolabeling, membranes were incubated with […] ^[3H]ucb 30889 for 120 min at 4° C. in the same buffer, followed by irradiation with UV-light for 30 min.
(§2) Abbreviation: nd, not detected.

Series [8] has as its system COS-7. Put plainly: [3H]ucb 30889 binding in cell types. Conditions: untransfected COS-7 cell line. The procedure: as §1, §2
In addition, a PC12 cell line subclone, PC12a, which is low in LBS, was used to establish a pool of PC12 cells expressing hSV2A under stable antibiotic selection.

Series [9] relates to peripheral tissues. Put plainly: [3H]ucb 30889 specific binding in peripheral tissues. Conditions: 150 μg of protein/assay, 1.3 nM radioligand; limit of detection Bmax 200 fmol/mg protein. The procedure: The limit of detection under the experimental conditions (150 μg of protein/assay and 1.3 nM of radioligand) was a Bmax of 200 fmol/mg protein.

T1 sequence (Q02563 whole entry): as the sequence (Q7L0J3 whole entry) above, with D53E, S62A, T71A, E144D, A154T, G440S, S482A, I572V, M634L counted along it

Turning to `CC[C@@H](C(N)=O)N1CCCC1=O` [levetiracetam, (S)-α-ethyl-2-oxo-1-pyrrolidine acetamide], the specific binding entry in series [1] is reported as “no specific binding”. In series [2] (rat hippocampal membranes), the affinity entry is listed as “modest affinity” and the binding capacity result is listed as “high binding capacity”. Moreover, in series [3], the “efficacy in controlling refractory partial seizures” value is listed as “effective” and the tolerability result was “well tolerated”. Further, the suppression of seizures result in series [4] is given as “unexpected potent ability”. Moreover, the “IC50 against SV2A expressed in COS-7 cells (rank order)” value (“IC50 against SV2A expressed” for short) in [5] is “same rank order as seen in studies of LBS in rat brain”.

The term Kd denotes the equilibrium constant for the complex coming apart. The low end stands for higher affinity, the high end for lower affinity. Usually Ki stands for the equilibrium dissociation constant of an inhibitor or competing ligand from its target. Low readings indicate a stronger hold on the target, high ones a looser hold on the target. In [6], `CC[C@@H](C(N)=O)N1CC(c2cccc(N=[N+]=[N-])c2)CC1=O` (stereo partly shown) [ucb 30889] showed a dissociation constant (Kd) of 42 nM and an inhibition constant (Ki) of 79.4 nM. Further, in [7], the Bmax was determined as 79000 sites/cell and the affinity, expressed as Kd, was 50 nM. For the same molecule, the binding entry in [8] is “no binding above background”. In series [9], the specific binding result is given as “could not be detected”. Further, the “IC50 against SV2A expressed” value in [5] was “same rank order as seen in studies of LBS in rat brain”.

Turning to `CC[C@H](C(N)=O)N1CCCC1=O` [ucb L060], the “times less affinity for the LBS than levetiracetam” value in series [2] (rat brain membranes) is “about 1000 times”. Moreover, the “IC50 against SV2A expressed” value in [5] was “same rank order as seen in studies of LBS in rat brain”.
